Tests used:
Test in all cases: Test B pre-/postemergence plant response
Assay type in all cases: in vivo
[1] = tested on: catchweed bedstraw (Galium aparine); conditions: Preemergence
How it was run: (§1)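 Seeds were sown and sprayed preemergence, while plants at 2 to 18 cm (1- to 4-leaf stage) got postemergence sprays. Compounds were formulated in a non-phytotoxic solvent mixture with surfactant. After 13 to 15 days in a greenhouse, injury was rated visually against untreated controls, 0 (no effect) to 100 (complete control).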

[2] = tested on: downy bromegrass (Bromus tectorum); conditions: for Bromegrass, Downy plant response rating: 8 g ai/ha
How it was run: as §1

[3] = tested on: surinam grass (Brachiaria decumbens)
How it was run: as §1

[4] = tested on: blackgrass (Alopecurus myosuroides); conditions: for Blackgrass plant response rating: 8 g ai/ha
How it was run: as §1

[5] = tested on: wheat (Triticum aestivum)
How it was run: as §1

[6] = tested on: lambsquarters (Chenopodium album)
How it was run: as §1

kochia (Kochia scoparia) = conditions: for Kochia plant response rating: postemergence, 0-100 scale
How it was run: as §1

[7] = tested on: morningglory (Ipomoea coccinea)
How it was run: as §1

soybean (Glycine max) = conditions: Preemergence; for Soybean plant response rating: scale 0 to 100
How it was run: as §1

[8] = tested on: Russian thistle (Salsola iberica); conditions: Preemergence; for Russian Thistle plant response rating: scale 0 to 100
How it was run: as §1

corn (Zea mays) = tested on: corn (Zea mays)
How it was run: as §1

[9] = tested on: cocklebur (Xanthium strumarium); conditions: for Cocklebur plant response rating: 8 g ai/ha
How it was run: as §1

[10] = tested on: bermudagrass (Cynodon dactylon); conditions: for Bermudagrass plant response rating: 8 g ai/ha
How it was run: as §1

[11] = tested on: yellow nutsedge (Cyperus esculentus)
How it was run: as §1

[12] = 31 g ai/ha, scale 0 to 100 (0 no effect, 100 complete control)
[13] = 62 g ai/ha, 0 to 100 scale, 0 no effect, 100 complete control
[14] = Postemergence, 16 g ai/ha, scale 0 to 100
[15] = Postemergence, 31 g ai/ha, scale 0 to 100
[16] = Postemergence, 62 g ai/ha, scale 0 to 100, 0 no effect, 100 complete control
[17] = Preemergence, 16 g ai/ha, scale 0 to 100 (0 no effect, 100 complete control)
[18] = Preemergence, 31 g ai/ha, scale 0 to 100 (0 no effect, 100 complete control)
[19] = Preemergence, 62 g ai/ha, 0 to 100 scale, 0 no effect, 100 complete control
[20] = 8 g ai/ha, postemergence, 0-100 scale
[21] = 16 g ai/ha, postemergence, 0-100 scale
[22] = Preemergence, 8 g ai/ha, scale 0 to 100
[23] = Preemergence, 16 g ai/ha, scale 0 to 100

SMILES: CCc1cc(-c2ccc(Br)cc2)nn1-c1c(O)cnn(C)c1=O [Compound 61]
- Plant response rating, Galium [1, 12]: 0
- Plant response rating, Galium [1, 13]: 0
- Galium plant response rating ([1]; 8 g ai/ha, scale 0 to 100): 0
- Bromegrass, Downy plant response rating ([2]; postemergence, 0-100 scale): 80
- Plant response rating, Bromegrass, Downy [2, 14]: 90
- Plant response rating, Bromegrass, Downy [2, 15]: 98
- Plant response rating, Bromegrass, Downy [2, 16]: 98
- Plant response rating, Bromegrass, Downy [2, 17]: 90
- Plant response rating, Bromegrass, Downy [2, 18]: 95
- Plant response rating, Bromegrass, Downy [2, 19]: 95
- Bromegrass, Downy plant response rating ([2]; Preemergence, scale 0 to 100): 0
- Surinam Grass plant response rating [3, 20]: 100
- Surinam Grass plant response rating [3, 21]: 100
- Plant response rating, Surinam Grass [3, 15]: 100
- Plant response rating, Surinam Grass [3, 16]: 100
- Plant response rating, Surinam Grass [3, 18]: 100
- Plant response rating, Surinam Grass [3, 19]: 100
- Surinam Grass plant response rating [3, 22]: 85
- Surinam Grass plant response rating [3, 23]: 100
- Blackgrass plant response rating ([4]; postemergence, 0-100 scale): 85
- Plant response rating, Blackgrass [4, 14]: 100
- Plant response rating, Blackgrass [4, 15]: 100
- Plant response rating, Blackgrass [4, 16]: 100
- Plant response rating, Blackgrass [4, 17]: 100
- Plant response rating, Blackgrass [4, 18]: 100
- Plant response rating, Blackgrass [4, 19]: 100
- Blackgrass plant response rating ([4]; Preemergence, scale 0 to 100): 40
- Wheat plant response rating [5, 20]: 90
- Wheat plant response rating [5, 21]: 95
- Plant response rating, Wheat [5, 15]: 98
- Plant response rating, Wheat [5, 16]: 100
- Plant response rating, Wheat [5, 18]: 90
- Plant response rating, Wheat [5, 19]: 95
- Wheat plant response rating [5, 23]: 30
- Lambsquarters plant response rating [6, 20]: 0
- Lambsquarters plant response rating [6, 21]: 0
- Plant response rating, Lambsquarters [6, 15]: 0
- Plant response rating, Lambsquarters [6, 16]: 0
- Plant response rating, Lambsquarters [6, 18]: 0
- Plant response rating, Lambsquarters [6, 19]: 0
- Lambsquarters plant response rating [6, 22]: 0
- Lambsquarters plant response rating [6, 23]: 0
- Kochia plant response rating (kochia (Kochia scoparia); 8 g ai/ha): 0
- Kochia plant response rating (kochia (Kochia scoparia); 16 g ai/ha): 0
- Plant response rating, Kochia (kochia (Kochia scoparia); [15]): 35
- Plant response rating, Kochia (kochia (Kochia scoparia); [16]): 45
- Plant response rating, Kochia (kochia (Kochia scoparia); [18]): 0
- Plant response rating, Kochia (kochia (Kochia scoparia); [19]): 0
- Morningglory plant response rating [7, 20]: 0
- Morningglory plant response rating [7, 21]: 0
- Plant response rating, Morningglory [7, 15]: 0
- Plant response rating, Morningglory [7, 16]: 0
- Plant response rating, Morningglory [7, 18]: 0
- Plant response rating, Morningglory [7, 19]: 0
- Morningglory plant response rating [7, 22]: 0
- Morningglory plant response rating [7, 23]: 0
- Plant response rating, Soybean (soybean (Glycine max); [12]): 0
- Plant response rating, Soybean (soybean (Glycine max); [13]): 0
- Soybean plant response rating (soybean (Glycine max); 8 g ai/ha): 0
- Soybean plant response rating (soybean (Glycine max); 16 g ai/ha): 0
- Plant response rating, Russian Thistle [8, 12]: 0
- Plant response rating, Russian Thistle [8, 13]: 0
- Russian Thistle plant response rating ([8]; 8 g ai/ha): 0
- Russian Thistle plant response rating ([8]; 16 g ai/ha): 0
- Corn plant response rating (corn (Zea mays); [20]): 75
- Plant response rating, Corn (corn (Zea mays); [14]): 100
- Plant response rating, Corn (corn (Zea mays); [15]): 100
- Plant response rating, Corn (corn (Zea mays); [16]): 100
- Plant response rating, Corn (corn (Zea mays); [18]): 100
- Plant response rating, Corn (corn (Zea mays); [19]): 100
- Corn plant response rating (corn (Zea mays); [22]): 95
- Corn plant response rating (corn (Zea mays); [23]): 98
- Cocklebur plant response rating ([9]; postemergence, 0-100 scale): 0
- Plant response rating, Cocklebur [9, 14]: 0
- Plant response rating, Cocklebur [9, 15]: 0
- Plant response rating, Cocklebur [9, 16]: 0
- Plant response rating, Cocklebur [9, 17]: 0
- Plant response rating, Cocklebur [9, 18]: 0
- Plant response rating, Cocklebur [9, 19]: 0
- Cocklebur plant response rating ([9]; Preemergence, scale 0 to 100): 0
- Bermudagrass plant response rating ([10]; postemergence, 0-100 scale): 55
- Plant response rating, Bermudagrass [10, 14]: 70
- Plant response rating, Bermudagrass [10, 15]: 95
- Plant response rating, Bermudagrass [10, 16]: 100
- Bermudagrass plant response rating ([10]; Preemergence, scale 0 to 100 (0 no effect, 100 complete control)): 55
- Plant response rating, Bermudagrass [10, 17]: 80
- Plant response rating, Bermudagrass [10, 18]: 90
- Plant response rating, Bermudagrass [10, 19]: 95
- Nutsedge, Yellow plant response rating [11, 20]: 0
- Nutsedge, Yellow plant response rating [11, 21]: 0
- Plant response rating, Nutsedge, Yellow [11, 15]: 0
- Plant response rating, Nutsedge, Yellow [11, 16]: 0
- Plant response rating, Nutsedge, Yellow [11, 18]: 0
- Plant response rating, Nutsedge, Yellow [11, 19]: 0
- Nutsedge, Yellow plant response rating [11, 22]: 0
- Nutsedge, Yellow plant response rating [11, 23]: 0
